# Results published in article PMC7901646, “Pyrrolo[2′,3′:3,4]cyclohepta[1,2-d][1,2]oxazoles, a New Class of Antimitotic Agents Active against Multiple Malignant Cell Types” (Journal of Medicinal Chemistry, 2020).
# Legend:
# Assay in all cases: MTT cell proliferation, lymphoma
# Assay type in all cases: cell-based
# [1] = test system: HBL1 (ABC DLBCL); settings: Homo sapiens, 1 μM, 72 h, of untreated cells, read-out: Proliferating cells (%)
# Procedure: (§1) All compounds were further tested at the concentration of 1 μM on four cell lines derived from distinct lymphoma histotypes, plus two with secondary resistance to the PI3Kδ inhibitor idelalisib[51] or to the BTK inhibitor ibrutinib.[52] […] For comparison, the same experiments were conducted using compound 3, but the response to it was minimal, and thus it was not considered further.
# (§2) Established human cell lines derived from germinal center B-cell (GCB) (SU-DHL-10), activated B-cell (ABC) (HBL1) diffuse large B-cell lymphoma (DLBCL), mantle cell lymphoma (MCL) (MINO), splenic marginal zone lymphoma (SMZL) (parental VL51, VL51 idelalisib resistant clone, VL51 ibrutinib resistant clone) were cultured in culture RPMI-1640 media supplemented with fetal bovine serum (10%), penicillin–streptomycin–neomycin (∼5,000 units of penicillin, 5 mg of streptomycinm and 10 mg of neomycin/mL, Sigma), and L-glutamine (1%). Vincristine sulfate was purchased from Sigma-Aldrich. Cell line identities were confirmed by CellCheck test (IDEXX, BioResearch, Ludwigsburg, Germany). All compounds were dissolved in dimethyl sulfoxide to obtain a stock concentration of 10 mM.
# (§3) The antiproliferative activity of all compounds was assessed by using the 3-(4.5-dimethylthiazolyl-2)-2,5-diphenyltetrazolium bromide (MTT) test. Cells were seeded in 96-well plates (nontissue culture treated) at a density of 1 × 10^5 cells/mL and treated with a single concentration of 1 μM for 72 h. […] In this case, cells were treated in triplicate with serially diluted compounds in the appropriate tissue culture medium at a range of 40–10 000 nM. Cells were incubated for 72 h at 37 °C, 5% CO2. Wells containing medium only were included on each plate and served as blanks for absorbance readings. MTT (Sigma, Buchs, Switzerland) was prepared as a 5 mg/mL stock solution in phosphate buffered saline (PBS) and filter-sterilized. MTT solution (22 μL) was added to each well, and tissue culture plates were incubated at 37 °C for 4 h. Cells were then lysed with 25% sodium dodecyl sulfate lysis buffer, and absorbance was read at 570 nm using a Beckman Coulter-AD340 plate reader.
# [2] = test system: MINO (MCL); settings: Homo sapiens, 1 μM, 72 h, of untreated cells, read-out: Proliferating cells (%)
# Procedure: as §1, §2, §3
# [3] = test system: SU-DHL-10 (GCB DLBCL); settings: Homo sapiens, SU-DHL10; 1 μM, 72 h, of untreated cells; read-out: Proliferating cells (%)
# Procedure: as §1, §2, §3
# [4] = test system: VL51 (MZL); settings: Homo sapiens, 1 μM, 72 h, of untreated cells, read-out: Proliferating cells (%)
# Procedure: as §1, §2, §3
# [5] = test system: VL51 ibrutinib-resistant; settings: Homo sapiens, 72 h, of untreated cells, read-out: Proliferating cells (%)
# Procedure: as §1, §2, §3
# [6] = test system: VL51 idelalisib-resistant; settings: Homo sapiens, 72 h, of untreated cells, read-out: Proliferating cells (%)
# Procedure: as §1, §2, §3
SMILES,activity at 1 µM [1] [%],activity at 1 µM [2] [%],activity at 1 µM [3] [%],activity at 1 µM [4] [%],activity at 1 µM [5] [%],activity at 1 µM [6] [%]
"O=S(=O)(c1ccccc1)n1ccc2c1-c1oncc1CCC2 [Compound 51, 9-(Phenylsulfonyl)-4,5,6,9-tetrahydropyrrolo[2′,3′:3,4]cyclohepta[1,2-d][1,2]oxazole]",118,104,110,88.1,121,118
"Cn1ccc2c1-c1oncc1CCC2 [Compound 52, 9-Methyl-4,5,6,9-tetrahydropyrrolo[2′,3′:3,4]cyclohepta[1,2-d][1,2]oxazole]",101,104,70.2,87.4,100,107
"c1ccc(Cn2ccc3c2-c2oncc2CCC3)cc1 [Compound 53, 9-Benzyl-4,5,6,9-tetrahydropyrrolo[2′,3′:3,4]cyclohepta[1,2-d][1,2]oxazole]",109,109,70.2,103,125,128
"COc1ccccc1Cn1ccc2c1-c1oncc1CCC2 [Compound 54, 9-(2-Methoxybenzyl)-4,5,6,9-tetrahydropyrrolo[2′,3′:3,4]cyclohepta[1,2-d][1,2]oxazole]",122,112,141,120,112,136
"COc1cccc(Cn2ccc3c2-c2oncc2CCC3)c1 [Compound 55, 9-(3-Methoxybenzyl)-4,5,6,9-tetrahydropyrrolo[2′,3′:3,4]cyclohepta[1,2-d][1,2]oxazole]",127,115,80.3,112,125,133
"COc1cc(Cn2ccc3c2-c2oncc2CCC3)cc(OC)c1OC [Compound 59, 9-(3,4,5-Trimethoxybenzyl)-4,5,6,9-tetrahydropyrrolo[2′,3′:3,4]cyclohepta[1,2-d][1,2]oxazole]",114,99,94.6,97.6,92.1,112
"CCOC(=O)c1cc2c(n1C)-c1oncc1CCC2 [Compound 60, Ethyl 9-Methyl-4,5,6,9-tetrahydropyrrolo[2′,3′:3,4]cyclohepta[1,2-d][1,2]oxazole-8-carboxylate]",146,112,61.7,108,125,115
"CCOC(=O)c1cc2c(n1Cc1ccccc1)-c1oncc1CCC2 [Compound 61, Ethyl 9-Benzyl-4,5,6,9-tetrahydropyrrolo[2′,3′:3,4]cyclohepta[1,2-d][1,2]oxazole-8-carboxylate]",124,106,65.2,93.3,118,117
"CCOC(=O)c1cc2c(n1Cc1ccc(OC)cc1)-c1oncc1CCC2 [Compound 64, Ethyl 9-(4-Methoxybenzyl)-4,5,6,9-tetrahydropyrrolo[2′,3′:3,4]cyclohepta[1,2-d][1,2]oxazole-8-carboxylate]",125,112,66.3,87.4,102,116
"CCOC(=O)c1cc2c(n1Cc1cc(OC)ccc1OC)-c1oncc1CCC2 [Compound 65, Ethyl 9-(2,5-Dimethoxybenzyl)-4,5,6,9-tetrahydropyrrolo[2′,3′:3,4]cyclohepta[1,2-d][1,2]oxazole-8-carboxylate]",111,107,71.6,86.2,94,96.4
